Assays:
[1] = Metabolic stability in mouse liver microsomes (MLM); format: in vitro ADME; conditions: 1 μM compound, 0.5 mg/mL MLM, 1 mM NADPH, 37° C., read-out: half-life (t1/2) towards MLM
Method: For the evaluation of phase I metabolic stability, the compound (1 μM) was incubated with 0.5 mg/mL MLM (Corning) and 1 mM NADPH at 37° C. for 0, 5, 10, 15 and 30 min. The metabolic stability of Verapamil, Diphenhydramine and Benzydamine (1 μM each) were determined in parallel to confirm the enzymatic activity of the MLM. The incubation was stopped by addition of 2 volumes of acetonitrile containing internal standard (1 μM Leucine Enkephaline). Samples were centrifuged (15 min, 3,500 rpm). Concentration of the remaining test compound at the different time points was analyzed by HPLC-MS/MS and used to determine half-life (t1/2).

PqsR = PqsR (Pseudomonas aeruginosa, UniProt Q9I4X0); assay: E. coli based β-galactosidase reporter gene assay (PqsR inverse agonistic activity); format: cell-based; parameters: expressed in transfected cells; host or cells: Escherichia coli DH5α
Summary of the method: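 E. coli DH5α carrying pEAL08-2 (tac-driven pqsR with pqsA-lacZ) was grown to OD600 0.2 and incubated with 0.001–10 μM compound plus 50 nM PQS for 2.5 h at 37 °C. β-Galactosidase activity was measured by ONPG conversion in permeabilized cells and normalized between the no-PQS and solvent controls. IC50 came from concentration variation.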

[2] = system: P. aeruginosa pyocyanin production; assay: Pyocyanin assay; format: cell-based, P. aeruginosa PA14; conditions: Pseudomonas aeruginosa, PA14, 16 h, read-out: IC50-value towards pyocyanin production, PA14 in PPGAS medium, 16 h
Summary of the method: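 PA14 in PPGAS medium from OD600 0.02 grown 16 h at 37 °C, 200 rpm, with compounds. Pyocyanin extracted with chloroform, back-extracted into 0.2 M HCl, OD520 normalised to OD600.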

[3] = Kinetic Turbidimetric Aqueous Solubility at room temperature for 5 min; format: physicochemical; conditions: PBS buffer, kinetic from dmso stock, 2% DMSO
Method: Kinetic Turbidimetric Aqueous Solubility at room temperature for 5 min. Test compound was diluted in PBS buffer to give a range of concentrations (typically 0.4, 2, 4, 20, 40, 100, and 200 μM, final DMSO concentration 2%) and incubated at room temperature for 5 min. Absorbance was measured at a wavelength of 620 nm and the solubility was estimated from the concentration of test compound that produces an increase in absorbance above the vehicle control (i.e., […]). Data was analyzed by fitting a four parameter sigmoidal function to the measured and normalized absorbances and AUC calculation providing access to Log S (decadic logarithm of the solubility).

Chain of PqsR (Q9I4X0 whole entry): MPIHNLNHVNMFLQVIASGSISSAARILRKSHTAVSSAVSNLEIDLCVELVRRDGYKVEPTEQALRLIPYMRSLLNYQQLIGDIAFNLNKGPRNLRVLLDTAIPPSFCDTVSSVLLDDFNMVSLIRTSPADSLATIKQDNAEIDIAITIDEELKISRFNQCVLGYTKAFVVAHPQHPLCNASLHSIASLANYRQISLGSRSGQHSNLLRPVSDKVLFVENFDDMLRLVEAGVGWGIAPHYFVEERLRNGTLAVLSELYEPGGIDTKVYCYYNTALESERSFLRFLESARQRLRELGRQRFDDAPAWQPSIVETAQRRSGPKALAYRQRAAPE

SMILES: FC(F)(F)c1cc(NCc2cn(-c3ccc(Oc4cccc(Cl)c4)cc3)nn2)ccn1 [Compound 030, N-((1-(4-(3-Chlorophenoxy)phenyl)-1H-1,2,3-triazol-4-yl)methyl)-2-(trifluoromethyl)pyridin-4-amine]
- half-life at 1 μM [1]: > 1 h
- IC50 (PqsR): ≤ 50 nM

SMILES: FC(F)(F)c1cc(NCc2cn(-c3ccc(Oc4ccccc4)cc3)nn2)cc(Cl)n1 [Compound 032, 2-Chloro-N-((1-(4-phenoxyphenyl)-1H-1,2,3-triazol-4-yl)methyl)-6-(trifluoromethyl)pyridin-4-amine]
- half-life at 1 μM [1]: > 1 h
- IC50 (PqsR): ≤ 50 nM

SMILES: O=C(c1ccccc1)c1ccc(-n2cc(CSc3ccnc(C(F)(F)F)c3)nn2)cc1 [Compound 057, Phenyl(4-(4-(((2-(trifluoromethyl)pyridin-4-yl)thio)methyl)-1H-1,2,3-triazol-1-yl)phenyl)methanone]
- half-life at 1 μM [1]: > 1 h
- IC50 (PqsR): 51 to 250 nM

SMILES: FC(F)(F)c1cc(NCc2ncc(-c3ccc(Oc4ccccc4)cc3)s2)ccn1 [Compound 078, N-((5-(4-Phenoxyphenyl)thiazol-2-yl)methyl)-2-(trifluoromethyl)pyridin-4-amine]
- IC50 [2]: ≤ 250 nM
- solubility at 5 min [3]: > 10 µM
- IC50 (PqsR): ≤ 50 nM

SMILES: Fc1ccc(Oc2ccc(-c3nc(CNc4ccnc(C(F)(F)F)c4)cs3)cn2)cc1 [Compound 083, N-((2-(6-(4-Fluorophenoxy)pyridin-3-yl)thiazol-4-yl)methyl)-2-(trifluoromethyl)pyridin-4-amine]
- half-life at 1 μM [1]: > 1 h
- IC50 (PqsR): 51 to 250 nM

SMILES: Fc1ccc(Oc2ccc(-c3nc(CNc4ccnc(C(F)(F)F)c4)cs3)cc2)cc1 [Compound 088, N-((2-(4-(4-Fluorophenoxy)phenyl)thiazol-4-yl)methyl)-2-(trifluoromethyl)pyridin-4-amine]
- half-life at 1 μM [1]: > 1 h
- IC50 (PqsR): ≤ 50 nM

SMILES: FC(F)(F)c1cc(NCc2nnc(-c3ccc(Oc4ccccc4)cc3)[nH]2)ccn1 [Compound 095, N-((5-(4-Phenoxyphenyl)-4H-1,2,4-triazol-3-yl)methyl)-2-(trifluoromethyl)pyridin-4-amine]
- IC50 [2]: 251 to 1000 nM
- solubility at 5 min [3]: > 25 µM
- IC50 (PqsR): 51 to 250 nM

SMILES: FC(F)(F)c1cc(NCc2cc(-c3ccc(Oc4ccccc4)cc3)n[nH]2)ccn1 [Compound 096, N-((3-(4-Phenoxyphenyl)-1H-pyrazol-5-yl)methyl)-2-(trifluoromethyl)pyridin-4-amine]
- IC50 [2]: 251 to 1000 nM
- solubility at 5 min [3]: > 10 µM
- IC50 (PqsR): 51 to 250 nM

SMILES: COc1ccc(-c2ccc(CNc3ccnc(C(F)(F)F)c3)nc2)cc1Cl [Compound 104, N-((5-(3-Chloro-4-methoxyphenyl)pyridin-2-yl)methyl)-2-(trifluoromethyl)pyridin-4-amine]
- IC50 [2]: 1000 to 5000 nM
- solubility at 5 min [3]: > 10 µM
- IC50 (PqsR): 51 to 250 nM

SMILES: FC(F)(F)c1cc(NCc2cnc(-c3ccc(C4CC4)cc3)nc2)ccn1 [Compound 107, N-((2-(4-Cyclopropylphenyl)pyrimidin-5-yl)methyl)-2-(trifluoromethyl)pyridin-4-amine]
- IC50 [2]: 251 to 1000 nM
- solubility at 5 min [3]: > 10 µM
- IC50 (PqsR): 51 to 250 nM

SMILES: FC(F)(F)c1cc(SCc2ccc(-c3ccc(Cl)nc3)cn2)ccn1 [Compound 112, 6-Chloro-6′-(((2-(trifluoromethyl)pyridin-4-yl)thio)methyl)-3,3′-bipyridine]
- IC50 [2]: 1000 to 5000 nM
- solubility at 5 min [3]: > 25 µM
- IC50 (PqsR): 51 to 250 nM

SMILES: FC(F)(F)c1cc(SCc2nc3cc(Cl)c(Cl)cc3[nH]2)ccn1 [Compound 119, 5,6-Dichloro-2-(((2-(trifluoromethyl)pyridin-4-yl)thio)methyl)-1H-benzo[d]imidazole]
- IC50 [2]: 1000 to 5000 nM
- solubility at 5 min [3]: > 25 µM
- IC50 (PqsR): 51 to 250 nM

SMILES: Fc1cccc(Oc2ccc(-n3cc(CNc4ccnc(C(F)(F)F)c4)nn3)cc2)c1 [Compound 145, N-((1-(4-(3-fluorophenoxy)phenyl)-1H-1,2,3-triazol-4-yl)methyl)-2-(trifluoromethyl)pyridin-4-amine]
- IC50 [2]: ≤ 250 nM
- solubility at 5 min [3]: > 25 µM
- IC50 (PqsR): ≤ 50 nM

SMILES: FC(F)(F)c1cc(NCc2cn(-c3ccc(OC4CCOC4)c(Cl)c3)nn2)ccn1 (stereo not shown) [Compound 153, N-((1-(3-chloro-4-((tetrahydrofuran-3-yl)oxy)phenyl)-1H-1,2,3-triazol-4-yl)methyl)-2-(trifluoromethyl)pyridin-4-amine]
- IC50 [2]: 251 to 1000 nM
- solubility at 5 min [3]: > 25 µM
- IC50 (PqsR): ≤ 50 nM

SMILES: FC(F)(F)c1cc(NCc2cn(-c3ccc(OC4CC4)c(Cl)c3)nn2)ccn1 [Compound 154, N-((1-(3-chloro-4-cyclopropoxyphenyl)-1H-1,2,3-triazol-4-yl)methyl)-2-(trifluoromethyl)pyridin-4-amine]
- IC50 [2]: 251 to 1000 nM
- solubility at 5 min [3]: > 10 µM
- IC50 (PqsR): ≤ 50 nM

SMILES: CC(C)Oc1ccc(-n2cc(CNc3ccnc([N+](=O)[O-])c3)nn2)cc1Cl [Compound 157, N-((1-(3-chloro-4-isopropoxyphenyl)-1H-1,2,3-triazol-4-yl)methyl)-2-nitropyridin-4-amine]
- IC50 [2]: ≤ 250 nM
- solubility at 5 min [3]: > 10 µM
- IC50 (PqsR): ≤ 50 nM

SMILES: CC(C)Oc1ccc(-c2ncc(CNc3cc(Cl)nc(C(F)(F)F)c3)s2)cc1 [Compound 161, 2-Chloro-N-((2-(4-isopropoxyphenyl)thiazol-5-yl)methyl)-6-(trifluoromethyl)pyridin-4-amine]
- IC50 [2]: ≤ 250 nM
- solubility at 5 min [3]: > 25 µM
- IC50 (PqsR): ≤ 50 nM

SMILES: CC(C)Oc1ccc(-c2ncc(CNc3cc(Cl)nc(C(F)(F)F)c3)cn2)cc1Cl [Compound 166]
- IC50 [2]: ≤ 250 nM
- solubility at 5 min [3]: > 25 µM
- IC50 (PqsR): ≤ 50 nM

SMILES: FC(F)(F)c1cc(SCc2nc3cc(Sc4ccccc4)ccc3[nH]2)ccn1 [Compound 176, 5-(phenylthio)-2-(((2-(trifluoromethyl)pyridin-4-yl)thio)methyl)-1H-benzo[d]imidazole]
- IC50 [2]: 251 to 1000 nM
- solubility at 5 min [3]: > 10 µM
- IC50 (PqsR): ≤ 50 nM

SMILES: FC(F)(F)c1cc(OCc2nc3cc(Oc4ccccc4)ccc3[nH]2)ccn1 [Compound 177, 5-phenoxy-2-(((2-(trifluoromethyl)pyridin-4-yl)oxy)methyl)-1H-benzo[d]imidazole]
- IC50 [2]: 1000 to 5000 nM
- solubility at 5 min [3]: > 25 µM
- IC50 (PqsR): 251 to 1000 nM

SMILES: COC(=O)c1ccc(Oc2ccc3[nH]c(CSc4ccnc(C(F)(F)F)c4)nc3c2)cc1 [Compound 179, methyl 4-((2-(((2-(trifluoromethyl)pyridin-4-yl)thio)methyl)-1H-benzo[d]imidazol-5-yl)oxy)benzonate]
- IC50 [2]: 1000 to 5000 nM
- solubility at 5 min [3]: > 10 µM
- IC50 (PqsR): 251 to 1000 nM

SMILES: Fc1cc2nc(CSc3ccnc(C(F)(F)F)c3)[nH]c2cc1Cl [Compound 180, 6-chloro-5-fluoro-2-(((2-(trifluoromethyl)pyridin-4-yl)thio)methyl)-1H-benzo[d]imidazole]
- IC50 [2]: 1000 to 5000 nM
- solubility at 5 min [3]: > 50 µM
- IC50 (PqsR): 251 to 1000 nM

SMILES: FC(F)(F)c1cc(NCc2nc3cc(Oc4ccccc4)ccc3[nH]2)ccn1 [Compound 182, N-((5-phenoxy-1H-benzo[d]imidazol-2-yl)methyl)-2-(trifluoromethyl)pyridin-4-amine]
- IC50 [2]: 251 to 1000 nM
- solubility at 5 min [3]: > 50 µM
- IC50 (PqsR): ≤ 50 nM

SMILES: Nc1cc(SCc2nc3cc(Oc4ccccc4)ccc3[nH]2)cc(C(F)(F)F)n1 [Compound 183, 4-(((5-phenoxy-1H-benzo[d]imidazol-2-yl)methyl)thio)-6-(trifluoromethyl)pyridin-2-amine]
- IC50 [2]: ≤ 250 nM
- solubility at 5 min [3]: > 25 µM
- IC50 (PqsR): ≤ 50 nM

Reference: US11883387B2, “PqsR inverse agonists” (HELMHOLTZ-ZENTRUM FÜR INFEKTIONSFORSCHUNG GMBH, priority 2018, dated 2024)
